Tests used:
[1] = in words; cited from earlier work
[2] = loading concentration of saturated active ingredient solution in penetration accelerator; format: physicochemical; conditions: for loading concentration in dimethyl isosorbide: dimethyl isosorbide as penetration accelerator; for loading concentration of saturated solution in DMEU: donor volume 150 μl
Procedure: The following test series with the various penetration accelerators and for the selected active ingredients were carried out in the context of a typical in vitro permeation using Franz diffusion cells. The used acceptor medium was replaced completely for a new one at predetermined replacement times, and the content of permeated active ingredient amount in these acceptor solutions was determined by means of HPLC.

| SMILES | water solubility [1] | loading concentration in dimethyl isosorbide [2] | loading concentration in dipropylene glycol ([2]; dipropylene glycol as penetration accelerator) | loading concentration of saturated solution in DMEU [2] |
| --- | --- | --- | --- | --- |
| CCOC(=O)C1=C(C)NC(C)=C(C(=O)OC)C1c1cccc(Cl)c1Cl (stereo not drawn) [Felodipine] | almost insoluble in water |  |  |  |
| Cc1cc2c(s1)Nc1ccccc1N=C2N1CCN(C)CC1 [Olanzapine] | almost insoluble in water |  |  |  |
| CC(=O)[C@H]1CC[C@H]2[C@@H]3CCC4=CC(=O)CC[C@]4(C)[C@H]3CC[C@]12C [Progesterone] | almost insoluble in water | 6.4 mg/cm^2 | 2.1 mg/cm^2 | 27.7 mg/cm^2 |
| COc1cc(/C=C/C(=O)CC(=O)/C=C/c2ccc(O)c(OC)c2)ccc1O [Curcumin] | almost insoluble in water | 1.29 mg/cm^2 |  | 12.75 mg/cm^2 |

From US20230104692A1, “DMEU ENHANCER” (priority 2020, published 2023)
